Data on 17 compounds can be found in patent US20240352066A1, “ANTIMICROBIAL COMPOUNDS AND THE METHOD OF USE” (priority 2021, published 2024).

The nature of series [1]: Mammalian cytotoxicity, MTT, HepG2. It counts as cell-based, human. The settings on record: human, HepG2 hepatocellular carcinoma cells. The procedure: Hepatocellular carcinoma (HepG2), mouse fibroblast (3T3), human lung (HPL1A), and human keratinocyte (HaCat) cells were cultured in Dulbecco modified eagle media (DMEM) containing 10% fetal bovine serum (FBS) and 1% penicillin, streptomycin, and glutamine (PSG) at 37° C. and 5% CO2. Cells were collected and adjusted to […] to 4×10^5 cells/mL in phenol-red free DMEM and plated (100 μL) 96 well plates. 2-fold serial dilutions of 10× peptoid (11.1 μL) were added to each well in triplicate. Water (vehicle) was used as a negative control. Plates were incubated at 37° C. in 5% CO2 for 72 hours. Thiazolyl blue tetrazolium bromide (MTT) was added to each well (5 mg/mL; 20 μL) and incubated for 3 hours. Media was removed, DMSO (100 μL) was added, and plates were incubated at 37° C. for 10 minutes. Plates were read on a SpectraMax M5 plate reader (Abs. 570 nm). The concentration of compound resulting in a 50% reduction in growth compared to control (toxicity dose 50%; TD50) was determined using GraFit. This procedure was repeated three times on separate days.
Cytotoxicity against HepG2 hepatocellular carcinoma cells was done as previously described (Green et al. ACS infectious diseases, (2022); Corson et al. ACS medicinal chemistry letters 7 12, 1139-1144 (2016)). HepG2 cells were maintained in culture in T-75 flasks using Dulbecco's Modified Eagle's Media (DMEM) with phenol red pH indicator and supplemented with 10% fetal bovine serum (FBS) and 1% penicillin, streptomycin, and glutamine (PSG). The cells were incubated at 37° C. and 5% CO2 in a humidified incubator until desired confluency was achieved. The media was removed from the flask, and the cells were washed 1× with 10 mL of phosphate-buffered saline (PBS; 11.8 mM phosphate, 140.4 mM NaCl; pH 7.4) which was then discarded. To remove the adhered cells from the flask, 2 mL of trypsin was added, and the cells were incubated for 10 minutes. To quench the trypsin, 8 mL of phenol red-free DMEM with 10% FBS and 1% PGS was added, and the cell solution was transferred to a 15 mL conical tube. After the cells were pelleted by centrifugation at 1000 rpm for 5 minutes, the supernatant was poured off and cells resuspended in the volume of phenol red-free media needed for the assay. Cell concentration was determined by counting with a hemocytometer, and the solution was diluted with media until a concentration of 1×10^5 cells/mL was achieved. A 100 μL aliquot of cell solution was added to each well of a 96-well plate, apart from the 3 wells used for a media control. Cells were incubated for 2-3 hours at 37° C. and 5% CO2 until cells were adherent.
Compound stocks of 20 mg/mL were used to prepare 2-fold serial dilutions of each compound in sterile water, giving final concentrations of 200, 100, 50, 25, 12.5, 6.25, 3.13 and 1.56 μg/mL. 11.1 μL of prepared compound solutions was added to the appropriate wells in triplicate. A negative vehicle control of sterile water, as well as the aforementioned media control, were used. The plates were incubated for 72 hours at 37° C. and 5% CO2. After incubation, 20 μL of 5 mg/mL 3-(4,5-dimethylthiazol-2-yl)-2,5-diphenyltetrazolium bromide (MTT) in water was added to each well. The plate was incubated for 3 hours at 37° C. and 5% CO2. Media was removed from each well using a sterile glass Pasteur pipette. 100 μL of DMSO was added to each well and incubated for 15 minutes at 37° C. Absorbance was read at 570 nm using a SpectraMax M5 Plate Reader. This MTT assay was performed in biological duplicate unless discrepant results were observed. If this was the case, the assay was performed in biological triplicate for further verification. The reported value is the average of biological replicates with standard deviation.

Series [2] concerns C. neoformans. It counts as cell-based, Cryptococcus neoformans. The settings on record: 72 h. The procedure: The minimum inhibitory concentration (MIC) of peptoids against fungal pathogens C. albicans and C. neoformans was determined following CLSI guidelines (CLSI. Reference method for broth dilution antifungal susceptibility testing of yeasts; approved standard-third edition; CLSI document M27-A3. (Clinical and Laboratory Standards Institute, 2008). […] This inoculant was diluted 1:100 into RPMI-MOPS and then further diluted 1:20 into RPMI-MOPS. 198 μL of inoculant was seeded into each well of a 96 well black-walled plate. 2-fold serial dilutions of 100× peptoid solutions were prepared in water and 2 μL of peptoid were added to each well in triplicate. […] MIC was defined as the lowest concentration of compound preventing fungal growth. This assay was repeated 3 times on separate days with each compound. […] The addition of 0.1 mL cell solution to 9.9 mL of RPMI-MOPS produced a 1:100 cell solution. After vortexing, 0.5 mL of the […] was added to 9.5 mL RPMI-MOPS to produce a 1:20 cell solution. 198 μL of the 1:20 solution was added to the wells of an opaque 96-well plate, apart from the wells designated for the medial control. […] Amphotericin B was used as a positive control, and sterile water was used for the vehicle control. The plates were incubated for 72 hours at 35° C. After incubation, the concentration of compound resulting in no visual growth was recorded as the MIC. All assays performed in biological triplicate on different days.

Values after ≈ are worked out from the molar mass of the structure shown. Where two headings read alike, the source gives them in different places. Where a SMILES comes first, the peptide text is derived from it. [ ]: non-standard residue; d: D form. The star is where a group is joined. Gly(N(CH2)2(3-indolyl)) = O=C(O)CNCCc1c[nH]c2ccccc12; Gly(Nα-4-Cl-benzyl) = O=C(O)CNCc1ccc(Cl)cc1; N(4-Br-benzyl)Gly = O=C(O)CNCc1ccc(Br)cc1; N(2-thienylmethyl)Gly = O=C(O)CNCc1cccs1; N(tridecyl)Gly = CCCCCCCCCCCCCNCC(=O)O; NBzl(4-I)Gly = O=C(O)CNCc1ccc(I)cc1; Gly(N-2-aminoethyl) = NCCNCC(=O)O; NFurfurylGly = O=C(O)CNCc1ccco1; X2 = CCCCCCCCN(CCCCCCCC)CC(=O)*; Gly(N-cHex) = O=C(O)CNC1CCCCC1; X1 = CCCCCCN(CCCCCC)CC(=O)*; Nphe = O=C(O)CNCc1ccccc1; Nlys = NCCCCNCC(=O)O; Sar = CNCC(=O)O Bounds are passed on as bounds.

Compound `CCCCCCCCCCCCCNCC(=O)N(CC(=O)N(CCCCN)CC(=O)N(CCN)CC(=O)N(CC(N)=O)Cc1ccco1)Cc1ccco1` [Compound 24] (H-[N(tridecyl)Gly][NFurfurylGly][Nlys][Gly(N-2-aminoethyl)][NFurfurylGly]-NH2) registered a CC50 at 72 h in series [1] of 143 ± 94 µg/mL (≈ 188 µM). In series [2], the “C. neoformans MIC” value lay in the range of 3.13 to 6.25 µg/mL.
With `CCCCCCCCCCCCCNCC(=O)N(CC(=O)N(CCCCN)CC(=O)N(CCN)CC(=O)N(CC(N)=O)Cc1ccc(I)cc1)Cc1ccc(I)cc1` [Compound 20] (H-[N(tridecyl)Gly][NBzl(4-I)Gly][Nlys][Gly(N-2-aminoethyl)][NBzl(4-I)Gly]-NH2), the CC50 at 72 h in series [1] turned out to be 72.2 ± 24 µg/mL (≈ 70 µM). In addition, in series [2], the “C. neoformans MIC” value was 6.25 µg/mL.
For `CCCCCCCCCCCCCNCC(=O)N(CC(=O)N(CCCCN)CC(=O)N(CCN)CC(=O)N(CC(N)=O)c1ccc2c(c1)CCC2)c1ccc2c(c1)CCC2` [Compound 22], the CC50 at 72 h in series [1] is 91 ± 4 µg/mL (≈ 109 µM). Besides, in series [2], the “C. neoformans MIC” value is 1.56 to 3.13 µg/mL.
The matching figures for `CCCCCCCCCCCCCNCC(=O)N(CCc1c[nH]c2ccccc12)CC(=O)N(CCCCN)CC(=O)N(CCN)CC(=O)N(CCc1c[nH]c2ccccc12)CC(N)=O` [Compound 23] (H-[N(tridecyl)Gly][Gly(N(CH2)2(3-indolyl))][Nlys][Gly(N-2-aminoethyl)][Gly(N(CH2)2(3-indolyl))]-NH2): 85 ± 10 µg/mL (≈ 96 µM) and 1.56 to 3.13 µg/mL.
Regarding `CCCCCCCCCCCCCNCC(=O)N(CC(=O)N(CCCCN)CC(=O)N(CCN)CC(=O)N(CC(N)=O)Cc1ccc(Br)cc1)Cc1ccc(Br)cc1` [Compound 19] (H-[N(tridecyl)Gly][N(4-Br-benzyl)Gly][Nlys][Gly(N-2-aminoethyl)][N(4-Br-benzyl)Gly]-NH2), the CC50 at 72 h in series [1] came out at 72.4 ± 20 µg/mL (≈ 77.3 µM). Also, in series [2], the “C. neoformans MIC” value was 3.13 µg/mL.
For `CCCCCCCCCCCCCNCC(=O)N(C)CC(=O)N(CCCCN)CC(=O)N(CCN)CC(=O)N(CC(N)=O)C1CCCCC1` [Position 2] (H-[N(tridecyl)Gly][Sar][Nlys][Gly(N-2-aminoethyl)][Gly(N-cHex)]-NH2), the CC50 at 72 h in series [1] is above 200 µg/mL. In addition, the “MIC C. neoformans” value in series [2] amounted to 6.25 µg/mL (≈ 8.99 µM).
Regarding `CCCCCCN(CCCCCC)CC(=O)N(CC(=O)N(CCCCN)CC(=O)N(CCN)CC(=O)N(CC(N)=O)C1CCCCC1)C1CCCCC1` [Compound 6] (X1-[Gly(N-cHex)][Nlys][Gly(N-2-aminoethyl)][Gly(N-cHex)]-NH2), the CC50 at 72 h in series [1] (Example 2, 72 hours, MTT, read-out: HepG2 TD50) is above 200 µg/mL. Also, in series [2], the “C. neoformans MIC” value amounted to 100 µg/mL.
In the case of `CCCCCCCCCCCCCNCC(=O)N(CC(=O)N(CCCCN)CC(=O)N(CCCCN)CC(=O)N(CC(N)=O)C1CCCCC1)C1CCCCC1` [Compound 2] (H-[N(tridecyl)Gly][Gly(N-cHex)][Nlys][Nlys][Gly(N-cHex)]-NH2), the CC50 at 72 h in series [1] amounted to 165 ± 97 µg/mL (≈ 208 µM). Moreover, in series [2], the “C. neoformans MIC” value came to 3.13 µg/mL.
`CCCCCCCCCCCCCNCC(=O)N(CC(=O)N(CCCCN)CC(=O)N(C)CC(=O)N(CC(N)=O)C1CCCCC1)C1CCCCC1` [Position 4] (H-[N(tridecyl)Gly][Gly(N-cHex)][Nlys][Sar][Gly(N-cHex)]-NH2) had a CC50 at 72 h in series [1] of 84 µg/mL (≈ 114 µM). For the same compound, the “MIC C. neoformans” value in series [2] turned out to be 3.13 µg/mL (≈ 4.26 µM).
With `CCCCCCCCCCCCCNCC(=O)N(CC(=O)N(CCCCN)CC(=O)N(CCN)CC(=O)N(CC(N)=O)Cc1cccs1)Cc1cccs1` [Compound 25] (H-[N(tridecyl)Gly][N(2-thienylmethyl)Gly][Nlys][Gly(N-2-aminoethyl)][N(2-thienylmethyl)Gly]-NH2), the CC50 at 72 h in series [1] is 154 ± 47 µg/mL (≈ 195 µM). In series [2], the “C. neoformans MIC” value lay in the range of 1.56 to 3.13 µg/mL.
`CCCCCCCCCCCCCNCC(=O)N(CC(=O)N(C)CC(=O)N(CCN)CC(=O)N(CC(N)=O)C1CCCCC1)C1CCCCC1` [Position 3] came in with a CC50 at 72 h in series [1] of 83 µg/mL (≈ 118 µM). In series [2], the “MIC C. neoformans” value is 3.13 µg/mL (≈ 4.43 µM).
In series [1], `CCCCCCCCCCCCCNCC(=O)N(CC(=O)N(CCCCN)CC(=O)N(CCN)CC(=O)N(CC(N)=O)Cc1ccc(Cl)cc1)Cc1ccc(Cl)cc1` [Compound 18] (H-[N(tridecyl)Gly][Gly(Nα-4-Cl-benzyl)][Nlys][Gly(N-2-aminoethyl)][Gly(Nα-4-Cl-benzyl)]-NH2) displayed a CC50 at 72 h of 71.8 ± 24 µg/mL (≈ 84.7 µM). Further, the “C. neoformans MIC” value in series [2] was determined as 3.13 µg/mL.
The compound `CCCCCCCCCCCCCNCC(=O)N(CC(=O)N(CCCCN)CC(=O)N(CCN)CC(=O)N(C)CC(N)=O)C1CCCCC1` [Position 5] (H-[N(tridecyl)Gly][Gly(N-cHex)][Nlys][Gly(N-2-aminoethyl)][Sar]-NH2) yielded a CC50 at 72 h in series [1] above 200 µg/mL. For the same compound, the “MIC C. neoformans” value in series [2] was found to be 6.25 µg/mL (≈ 8.99 µM).
Compound `CCCCCCCCN(CCCCCCCC)CC(=O)N(CC(=O)N(CCCCN)CC(=O)N(CCN)CC(=O)N(CC(N)=O)C1CCCCC1)C1CCCCC1` [Compound 7] (X2-[Gly(N-cHex)][Nlys][Gly(N-2-aminoethyl)][Gly(N-cHex)]-NH2) showed a CC50 at 72 h in series [1] of 162 ± 29 µg/mL (≈ 201 µM). For the same compound, in series [2], the “C. neoformans MIC” value was determined as 6.25 µg/mL.
The matching figures for `CCCCCCCCCCCCCNCC(=O)N(CC(=O)N(CCCCN)CC(=O)N(CCN)CC(=O)N(CC(N)=O)Cc1ccccc1)Cc1ccccc1` [Compound 15] (H-[N(tridecyl)Gly][Nphe][Nlys][Gly(N-2-aminoethyl)][Nphe]-NH2): 145 ± 96 µg/mL (≈ 186 µM) and 1.56 to 3.13 µg/mL.
As to `CNCC(=O)N(CC(=O)N(CCCCN)CC(=O)N(CCN)CC(=O)N(CC(N)=O)C1CCCCC1)C1CCCCC1` [Position 1] (H-[Sar][Gly(N-cHex)][Nlys][Gly(N-2-aminoethyl)][Gly(N-cHex)]-NH2), in series [1], the CC50 at 72 h is above 200 µg/mL. The “MIC C. neoformans” value in series [2] was above 50.00 µg/mL.
In the case of `CCCCCCCCCCCCCNCC(=O)N(CC(=O)N(CCCCN)CC(=O)N(CCN)CC(=O)N(CC(N)=O)c1cccc2ccccc12)c1cccc2ccccc12` [Compound 21], the CC50 at 72 h in series [1] was 118 ± 19 µg/mL (≈ 139 µM). In addition, the “C. neoformans MIC” value in series [2] was determined as 6.25 µg/mL.
